Laboratory results: patent US8377468B2, “Dry wound dressing and drug delivery system” (Rexaderm, Inc., priority 2006, dated 2013)

Tested on: diabetic leg ulcer
Assay: Case report: treatment of a diabetic leg ulcer
Assay type: in vivo, human
From the text: FIG. 1-6 are a series of 6 pictures taken sequentially after treatment of a leg ulcer, which had persisted for over 6 months without healing, using the dry dressing described herein that contained human cellular fibronectin (cFN).
The cFN dressing was held on with either a 4×4 sponge and tape or with a BAND-AID™ (adhesive bandage).
A few months after the lesion occurred, a dermatologist obtained a biopsy sample, and the ulcer became infected, resulting in a larger lesion that was greatly inflamed. The lesion was treated with Avelox™. It appeared to heal in a few months, when the patient removed what appeared to be dead skin. The lesion opened again, and the patient treated it with Neosporin, Iodine, and Merthiolate. The dermatologist took a swab of the lesion. After the patient used the Bactro-Ban (Muciprocin) recommended by the dermatologist for two weeks, the wound became worse so the patient sealed it with Merthiolate. A bleeding lesion the size of a nickel persisted. The patient began treatment with cFN wound dressing of Example 2 about two weeks later, changing the dressing every 48 hours except for the first day. (The first change was at 24 hours). For the first 4 days, the material was fixed to the wound with a 4×4 gauze pad and an ACE bandage, then with a Band-Aid. […]

**Q.** For `C/C(=C\C(=O)OCCCCCCCCC(=O)O)C[C@@H]1OC[C@H](C[C@@H]2O[C@H]2[C@@H](C)[C@H](C)O)[C@@H](O)[C@H]1O` [Bactro-Ban, Muciprocin], which lesion size (FIG. 1, after wound was treated for two weeks) is on record?
**A.** Its lesion size is 12-15 mm.

**Q.** What about the wound outcome (used for two weeks) of the same compound?
**A.** The wound outcome was “became worse”.
